Here are results for twelve compounds from ChEMBL document CHEMBL1201862, “PubChem BioAssay data set” (2004).

Several values for one entry are separate records, joined by “and”; a condition that tells them apart may be missing. Equal entries are not always repeated.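 Test compounds were applied to cells in 96-well plates for 48 hours at 5 doses. GI50: concentration for 50% inhibition of growth.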 Activity calls are given as the source filed them. Cut-off read from the data, not from the text of the source: active = GI50 up to about 1.1 µM and inactive = higher.

Among the test systems are 786-0; CCRF-CEM; HCT-116; HCT-15; HT-29; Hs-578T; IGROV-1; K562; KM12; MOLT-4; NCI-H460; OVCAR-5; PC-3; SN12C; SR; T47D; UACC-257; UACC-62; SNB-75.
Holding throughout (experiment): growth of human tumour cells (NCI), 48 h

Take `C=CCNC(=O)N1CC(C)C(=O)Nc2ccccc21` (centres undefined): the GI50 in the experiment with 786-0 was > 100 µM (inactive); with CCRF-CEM, > 100 µM (inactive); with HCT-116, > 100 µM (inactive); in the experiment on HCT-15, greater than 100 µM; with HT-29, > 100 µM (inactive); in the experiment on Hs-578T, > 100 µM (inactive). Also, the GI50 in the experiment with IGROV-1, in the experiment on K562, in the experiment on KM12, in the experiment on MOLT-4, in the experiment with NCI-H460 and with OVCAR-5 was > 100 µM (inactive) in each case. The GI50 with PC-3, in the experiment on SN12C, in the experiment with SR, with T47D and in the experiment with UACC-257 was > 100 µM (inactive) throughout.

Turning to `Cc1cc(C)n(-c2nc(-n3nc(C)cc3C)nc(-n3nc(C)cc3C)n2)n1`, the GI50 in the experiment with 786-0 was > 100 µM (inactive); with CCRF-CEM, 62.7 µM (inactive); in the experiment on HCT-116, > 100 µM (inactive); in the experiment on HCT-15, 83.8 µM; in the experiment on HT-29 it was > 100 µM (inactive); in the experiment with Hs-578T it was 50.5 µM (inactive). The GI50 was > 100 µM (inactive) with IGROV-1; 59.2 µM (inactive) in the experiment with K562; > 100 µM (inactive) in the experiment on KM12; > 100 µM (inactive) in the experiment with MOLT-4; 33.2 µM (inactive) in the experiment on NCI-H460; > 100 µM (inactive) in the experiment on OVCAR-5. Also, the GI50 with PC-3, in the experiment with SN12C, in the experiment with SR, in the experiment on T47D, in the experiment on UACC-257 and in the experiment on UACC-62 was > 100 µM (inactive) throughout.

Turning to `O=C(CC(C(=O)c1ccsc1)c1ccsc1)c1ccsc1` (centres undefined), the GI50 with 786-0 was > 100 µM (inactive); with CCRF-CEM, 43.1 µM (inactive); with HCT-116 it was 43.4 µM (inactive); in the experiment with HCT-15 it was 61.4 µM; in the experiment with HT-29, 77.6 µM (inactive); in the experiment with Hs-578T, > 100 µM (inactive). Moreover, the GI50 in the experiment with IGROV-1 is > 100 µM (inactive); in the experiment on K562 it was 54.6 µM (inactive); with KM12, 42.7 µM (inactive); in the experiment on MOLT-4, 35.6 µM (inactive); in the experiment with NCI-H460, 60 µM (inactive); in the experiment with PC-3, 44 µM (inactive). The GI50 is > 100 µM (inactive) in the experiment with SN12C; 56.5 µM (inactive) with SNB-75; 36.5 µM (inactive) in the experiment with SR; 25.5 µM (inactive) with T47D; 58.2 µM (inactive) in the experiment with UACC-257; 74.8 µM (inactive) in the experiment with UACC-62.

As for `CCOC(=O)C(=CNc1ccc(S(N)(=O)=O)cc1)C(=O)OCC`, the GI50 is > 100 µM (inactive) in the experiment with 786-0; > 100 µM (inactive) in the experiment on CCRF-CEM; > 100 µM (inactive) with HCT-116; greater than 100 µM with HCT-15; > 100 µM (inactive) in the experiment with HT-29; > 100 µM (inactive) with Hs-578T. For the same compound, the GI50 with IGROV-1, in the experiment on K562, in the experiment on MOLT-4, in the experiment with NCI-H460, in the experiment on OVCAR-5 and in the experiment with PC-3 was > 100 µM (inactive) throughout. Also, the GI50 in the experiment with SN12C, with SNB-75, in the experiment on SR, in the experiment on T47D and with UACC-257 was > 100 µM (inactive) in each case.

For the compound `O=C(/C=C/c1cccs1)c1ccc([N+](=O)[O-])cc1`, the GI50 in the experiment with 786-0 is > 100 µM (inactive); with CCRF-CEM, > 100 µM (inactive); with HCT-116, 58.1 µM (inactive); in the experiment with HCT-15, greater than 100 µM; in the experiment on HT-29, > 100 µM (inactive); in the experiment on Hs-578T, 65.5 µM (inactive). The GI50 was > 100 µM (inactive) in the experiment on IGROV-1; 66.1 µM (inactive) in the experiment on K562; 71.9 µM (inactive) in the experiment on KM12; 71 µM (inactive) in the experiment with MOLT-4; > 100 µM (inactive) with NCI-H460; > 100 µM (inactive) in the experiment on PC-3. The GI50 with SN12C is > 100 µM (inactive); in the experiment with SNB-75 it was 77.8 µM (inactive); in the experiment with SR, 65.8 µM (inactive); in the experiment with T47D, > 100 µM (inactive); with UACC-257, > 100 µM (inactive); in the experiment on UACC-62, > 100 µM (inactive).

`COc1ccc(/N=C2\C(=O)Nc3ccc(Br)cc32)cc1`: the GI50 with 786-0 was 16.3 µM (inactive); in the experiment on CCRF-CEM, 13.4 µM (inactive); in the experiment on HCT-116, 14.2 µM (inactive); with HCT-15, 14.3 µM; in the experiment with HT-29, 23.4 µM (inactive); in the experiment with Hs-578T, 41.5 µM (inactive). For the same compound, the GI50 in the experiment with K562 was 8.67 µM (inactive); in the experiment on KM12, 10.7 µM (inactive); in the experiment on MOLT-4, 16.6 µM (inactive); with NCI-H460, 21.8 µM (inactive); in the experiment on OVCAR-5, 23.2 µM (inactive); in the experiment with PC-3 it was 25.3 µM (inactive). In addition, the GI50 in the experiment on SN12C was 17.2 µM (inactive); with SR, 3.58 µM (inactive); with T47D, 18.3 µM (inactive); with UACC-257, 20.7 µM (inactive); with UACC-62 it was 4.89 µM (inactive).

As for `N=c1c2sc3nc4ccccc4n3c2ncn1Cc1ccccc1`, the GI50 in the experiment with 786-0 is > 100 µM (inactive); in the experiment on CCRF-CEM it was > 100 µM (inactive); in the experiment on HCT-116, > 100 µM (inactive); in the experiment on HCT-15 it was greater than 100 µM; in the experiment on Hs-578T, > 100 µM (inactive); in the experiment on IGROV-1, > 100 µM (inactive). For the same compound, the GI50 in the experiment with KM12 is 0.957 µM (active); in the experiment on MOLT-4, > 100 µM (inactive); in the experiment on OVCAR-5, > 100 µM (inactive); in the experiment with PC-3, > 100 µM (inactive); in the experiment on SNB-75, > 100 µM (inactive); in the experiment with SR, > 100 µM (inactive). Besides, the GI50 in the experiment on T47D, in the experiment on UACC-257 and in the experiment with UACC-62 was > 100 µM (inactive) each time.

For `CC(=O)OCC1OC(Sc2nc(-c3ccc(C)cc3)c(C#N)c(=O)n2C2OC(COC(C)=O)C(OC(C)=O)C(OC(C)=O)C2OC(C)=O)C(OC(C)=O)C(OC(C)=O)C1OC(C)=O` (centres undefined), the GI50 in the experiment with 786-0 was > 100 µM (inactive); in the experiment with CCRF-CEM it was 4.83 µM (inactive) and 6.76 µM (inactive); with HCT-116, > 100 µM (inactive); in the experiment with HCT-15 it was greater than 100 µM; in the experiment with HT-29, > 100 µM (inactive); in the experiment with Hs-578T it was > 100 µM (inactive). Also, the GI50 in the experiment on IGROV-1, in the experiment with MOLT-4, in the experiment on NCI-H460, with OVCAR-5, with PC-3 and with SN12C was > 100 µM (inactive) in each case. Further, the GI50 with SNB-75, in the experiment with SR, in the experiment on T47D, with UACC-257 and with UACC-62 was > 100 µM (inactive) throughout.

On to `CCCCn1c(N)c(-c2nc3ccccc3o2)sc1=S`, for which the GI50 in the experiment on 786-0 is 17.3 µM (inactive); in the experiment on CCRF-CEM it was 32.8 µM (inactive); in the experiment on HCT-116, 10.5 µM (inactive); in the experiment on HCT-15, 15.4 µM; in the experiment on HT-29, 27.4 µM (inactive); in the experiment with Hs-578T, 26.9 µM (inactive). The GI50 with IGROV-1 was 21.8 µM (inactive); with K562, 22.3 µM (inactive); with KM12 it was 12.5 µM (inactive); in the experiment on MOLT-4, 43 µM (inactive); with NCI-H460, 15.8 µM (inactive); with OVCAR-5, 24.8 µM (inactive). In addition, the GI50 with PC-3 was 23.4 µM (inactive); in the experiment on SN12C, 22.1 µM (inactive); in the experiment with SR it was 17.7 µM (inactive); with T47D it was 19.3 µM (inactive); with UACC-257 it was 60.7 µM (inactive); with UACC-62, 11.2 µM (inactive).

For `O=C1c2cccnc2C(=O)C2C3C=CC(C3)C12` (centres undefined), the GI50 was 11.1 µM (inactive) in the experiment with 786-0; 1.18 µM (inactive) in the experiment on CCRF-CEM; 3.85 µM (inactive) in the experiment with HCT-116; 12 µM in the experiment on HCT-15; 27.2 µM (inactive) with HT-29; 9.66 µM (inactive) with Hs-578T. Moreover, the GI50 in the experiment with IGROV-1 is 10.6 µM (inactive); in the experiment on K562, 2.94 µM (inactive); with KM12, 14.5 µM (inactive); in the experiment on NCI-H460, 3.49 µM (inactive); with OVCAR-5 it was 18.3 µM (inactive); with PC-3, 10.2 µM (inactive). Besides, the GI50 was 12.8 µM (inactive) with SN12C; 12.6 µM (inactive) with SNB-75; 2.11 µM (inactive) in the experiment with SR; 3.01 µM (inactive) with T47D; 13.5 µM (inactive) with UACC-257; 3.37 µM (inactive) with UACC-62.

Take `CCNC(=O)OCC1C2=C(C(=O)C(C)=C(N)C2=O)N2CC3C(N3C)C12OC` (centres undefined): the GI50 was 10.1 µM (inactive) with 786-0; 4.21 µM (inactive) with CCRF-CEM; 14.6 µM (inactive) in the experiment with HCT-116; 14.6 µM in the experiment with HCT-15; 18.5 µM (inactive) in the experiment with HT-29; > 100 µM (inactive) in the experiment with Hs-578T. The GI50 with IGROV-1 was 18.5 µM (inactive); with K562, 25.5 µM (inactive); in the experiment on MOLT-4, 3.28 µM (inactive); in the experiment on NCI-H460 it was 0.18 µM (active); in the experiment with OVCAR-5, > 72.6 µM (inactive); with PC-3, 24.5 µM (inactive). Moreover, the GI50 was 13.5 µM (inactive) in the experiment on SN12C; 21.7 µM (inactive) with SNB-75; 1.48 µM (inactive) in the experiment with SR; 55.2 µM (inactive) in the experiment with T47D; 62.4 µM (inactive) in the experiment on UACC-257; 11.9 µM (inactive) in the experiment with UACC-62.

`CCN1CCC(O)(/C=C/c2ccc(Cl)c(Cl)c2)C(C(=O)/C=C/c2ccc(Cl)c(Cl)c2)C1` (centres undefined): the GI50 with 786-0 is 1.41 µM (inactive); with CCRF-CEM, 0.306 µM (active); in the experiment with HCT-116, 0.514 µM (active); in the experiment with HCT-15, 1.89 µM; in the experiment on HT-29 it was 0.689 µM (active); with Hs-578T, 0.271 µM (active). Also, the GI50 in the experiment on IGROV-1 is 0.706 µM (active); in the experiment on K562, 0.324 µM (active); in the experiment on KM12, 0.713 µM (active); with MOLT-4 it was 0.243 µM (active); with NCI-H460 it was 0.76 µM (active); in the experiment with OVCAR-5, 1.12 µM (inactive). The GI50 with PC-3 was 0.329 µM (active); in the experiment on SN12C, 0.873 µM (active); in the experiment with SNB-75 it was 1.01 µM (active); in the experiment with T47D, 0.966 µM (active); in the experiment with UACC-257, 0.986 µM (active); in the experiment with UACC-62 it was 0.973 µM (active).
